Our source for the EC50 values is US12629374B2, “Antimalarial agents” (Merck Sharp & Dohme LLC, priority 2020, dated 2026).

One may read the EC50 as the midpoint of the concentration-response curve.

The first experiment concerns ring stage parasites. Put plainly: Parasite growth potency assay, 72 hours, LDH readout. In kind it is cell-based. The following applies: 72 h, parasite growth measured by LDH assay after 72 hours at 37° C.; 0.7% rings, 2% haematocrit; read-out: EC50. The method in brief: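 Parasite growth was quantified by LDH assay after a −80 °C freeze-thaw. Before that, compound was incubated for 72 h at 37 °C under humidified gas with ring-stage cultures adjusted to 0.7% parasitemia and 2% haematocrit in serum- and albumax-supplemented RPMI-Hepes.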
As for `CC[C@@H](c1cccc(C(=O)N[C@@H]2c3ccccc3OC(C)(C)[C@H]2O)c1)N1C(=N)NC(CC)(CC)CC1=O` [Example 207B, [4,4-diethyl-1-[1-[3-[[(3S,4R)-3-hydroxy-2,2-dimethyl-chroman-4-yl]carbamoyl]phenyl]propyl]-6-oxo-hexahydropyrimidin-2-ylidene]ammonium; 2,2,2-trifluoroacetate], the 50% effective concentration (EC50) is 72 nM. The same measure, in the same setting: as for `CC[C@H](c1cccc(C(=O)N[C@@H]2c3ccccc3C[C@H]2O)c1)N1C(=N)NC(CC)(CC)CC1=O` [Example 208, [4,4-diethyl-1-[1-[3-[[(1R,2R)-2-hydroxyindan-1-yl]carbamoyl]phenyl]propyl]-6-oxo-hexahydropyrimidin-2-ylidene]ammonium; 2,2,2-trifluoroacetate], the figure is 0.7 nM. Regarding `C#CCC[C@H](c1cccc(C(=O)N[C@H]2CCOc3ccccc32)c1)N1C(=N)NC(CC)(CC)CC1=O` [Example 209, [1-[1-[3-LL(4R)-chroman-4-yl]carbamoyl]phenyl]pent-4-ynyl]-4,4-diethyl-6-oxo-hexahydropyrimidin-2-ylidene]ammonium; 2,2,2-trifluoroacetate], the EC50 was found to be 8.9 nM.

With `C#CCCC[C@H](c1cccc(C(=O)N[C@H]2CCOc3ccccc32)c1)N1C(=N)NC(CC)(CC)CC1=O` [Example 210A, [1-[1-[3-[[(4S)-chroman-4-yl]carbamoyl]phenyl]hex-5-ynyl]-4,4-diethyl-6-oxo-hexahydropyrimidin-2-ylidene]ammonium; 2,2,2-trifluoroacetate], the EC50 is 0.7 nM. Turning to `C#CCC[C@@H](c1cccc(C(=O)NC2CC(C)(C)Oc3ccccc32)c1)N1C(=N)NC(CC)(CC)CC1=O` (stereo partly drawn) [Example 214A, 3-[(1S)-1-(4,4-diethyl-2-imino-6-oxo-hexahydropyrimidin-1-yl)pent-4-ynyl]-N-(2,2-dimethylchroman-4-yl)benzamide], the EC50 was found to be 26.3 nM. On the same count and under the same terms, as for `C#CCC[C@H](c1cccc(C(=O)N[C@H]2CC(C)(C)Oc3ccccc32)c1)N1C(=N)NC(CC)(CC)CC1=O` [Example 214C, 3-[(1R)-1-(4,4-diethyl-2-imino-6-oxo-hexahydropyrimidin-1-yl)pent-4-ynyl]-N-(2,2-dimethylchroman-4-yl)benzamide], the figure is 0.4 nM; as for `CCC1(CC)CC(=O)N(Cc2cccc(C(=O)N[C@@H]3CCOc4ccc(Cl)cc43)c2)C(=N)N1` [Example 215A, N-(6-chlorochroman-4-yl)-3-[(4,4-diethyl-2-imino-6-oxo-hexahydropyrimidin-1-yl)methyl]benzamide], 70 nM; as for `C[C@H](c1cccc(C(=O)NC2c3ccccc3OC(C)(C)C2(C)O)c1)N1C(=N)NC(C)(C)CC1=O` (stereo partly drawn) [Example 222, N-(3-hydroxy-2,2,3-trimethyl-chroman-4-yl)-3-[(1R)-1-(2-imino-4,4-dimethyl-6-oxo-hexahydropyrimidin-1-yl)ethyl]benzamide], 2.28 nM. On the same count and under the same terms, as for `CCC1(CC)CC(=O)N(C(COC)c2cccc(C(=O)N[C@@H]3c4ccccc4C[C@H]3O)c2)C(=N)N1` (stereo partly drawn) [Example 223, 3-[1-(4,4-diethyl-2-imino-6-oxo-hexahydropyrimidin-1-yl)-2-methoxy-ethyl]-N-[(1R,2R)-2-hydroxyindan-1-yl]benzamide], the figure is 2.3 nM; as for `CC1(C)CC(=O)N(C(CC(F)(F)F)c2cccc(C(=O)N[C@@H]3c4ccccc4C[C@H]3O)c2)C(=N)N1` (stereo partly drawn) [Example 224, N-[(1R,2R)-2-hydroxyindan-1-yl]-3-[3,3,3-trifluoro-1-(2-imino-4,4-dimethyl-6-oxo-hexahydropyrimidin-1-yl)propyl]benzamide], 15.5 nM. In the case of `CC[C@]1(C)CC(=O)N([C@H](C)c2cccc(C(=O)NC3c4ccccc4OC(C)(C)C3(C)O)c2)C(=N)N1` (stereo partly drawn) [Example 225, 3-[(1R)-1-[(4R)-4-ethyl-2-imino-4-methyl-6-oxo-hexahydropyrimidin-1-yl]ethyl]-N-(3-hydroxy-2,2,3-trimethyl-chroman-4-yl)benzamide], the half-maximal effective concentration (EC50) was 0.32 nM. The same measure, in the same setting: as for `CCC1(CC)CC(=O)N([C@H](CCOC)c2cccc(C(=O)NC3c4ccccc4CCC3O)c2)C(=N)N1` (stereo partly drawn) [Example 226, 3-[(1R)-1-(4,4-diethyl-2-imino-6-oxo-hexahydropyrimidin-1-yl)-3-methoxy-propyl]-N-(2-hydroxytetralin-1-yl)benzamide], the figure is 2.2 nM; as for `CCC1(CC)NC(=N)N([C@H](CCOC)c2cccc(C(=O)N[C@@H]3c4ccccc4C[C@H]3O)c2)C(=O)C1C` (stereo partly drawn) [Example 227A, 3-[(1R)-1-(4,4-diethyl-2-imino-5-methyl-6-oxo-hexahydropyrimidin-1-yl)-3-methoxy-propyl]-N-[(1R,2R)-2-hydroxyindan-1-yl]benzamide], 1.25 nM. For the compound `CCC1(CC)CC(=O)N([C@H](C)c2cccc(C(=O)N[C@@H]3c4ccccc4OC(C)(C)[C@@]3(C)O)c2)C(=N)N1` [Example 228, 3-[(1R)-1-(4,4-diethyl-2-imino-6-oxo-hexahydropyrimidin-1-yl)ethyl]-N-[(3S,4R)-3-hydroxy-2,2,3-trimethyl-chroman-4-yl]benzamide], the half-maximal effective concentration (EC50) is 0.34 nM. `CCC1(CC)CC(=O)N(C(COC)c2cccc(C(=O)N[C@@H]3c4ccccc4OC[C@]3(C)O)c2)C(=N)N1` (stereo partly drawn) [Example 229, 3-[1-(4,4-diethyl-2-imino-6-oxo-hexahydropyrimidin-1-yl)-2-methoxy-ethyl]-N-[(3R,4R)-3-hydroxy-3-methyl-chroman-4-yl]benzamide]: the EC50 came out at 2.2 nM.

For the compound `COCC[C@H](c1cccc(C(=O)N[C@@H]2c3ccccc3OC(C)(C)[C@@]2(C)O)c1)N1C(=N)NC(C)(C)CC1=O` [Example 231, N-[(3S,4R)-3-hydroxy-2,2,3-trimethyl-chroman-4-yl]-3-[(1R)-1-(2-imino-4,4-dimethyl-6-oxo-hexahydropyrimidin-1-yl)-3-methoxy-propyl]benzamide], the EC50 came to 2.9 nM. With `CCC1(CC)CC(=O)N(C(COC)c2cccc(C(=O)N[C@@H]3c4ccccc4OC(C)(C)[C@H]3O)c2)C(=N)N1` (stereo partly drawn) [Example 232, 3-[l-(4,4-diethyl-2-imino-6-oxo-hexahydropyrimidin-1-yl)-2-methoxy-ethyl]-N-[(3S,4R)-3-hydroxy-2,2-dimethyl-chroman-4-yl]benzamide], the EC50 stood at 0.32 nM.

Turning to `CC1(C)CC(=O)N(C(CC(F)(F)F)c2cccc(C(=O)N[C@@H]3c4ccccc4OC(C)(C)[C@H]3O)c2)C(=N)N1` (stereo partly drawn) [Example 233, N-[(3S,4R)-3-hydroxy-2,2-dimethyl-chroman-4-yl]-3-[3,3,3-trifluoro-1-(2-imino-4,4-dimethyl-6-oxo-hexahydropyrimidin-1-yl)propyl]benzamide], the EC50 came out at 1.4 nM. The same measure, in the same setting: as for `COCC[C@H](c1cccc(C(=O)NC2c3cc(F)ccc3OC(C)(C)C2(C)O)c1)N1C(=N)NC(C)(C)CC1=O` (stereo partly drawn) [Example 235, N-(6-fluoro-3-hydroxy-2,2,3-trimethyl-chroman-4-yl)-3-[(1R)-1-(2-imino-4,4-dimethyl-6-oxo-hexahydropyrimidin-1-yl)-3-methoxy-propyl]benzamide], the figure is 0.32 nM.

`CCC1(CC)CC(=O)N(C(CCOC)c2ccc(C(F)(F)F)c(C(=O)N[C@@H]3c4ccccc4C[C@H]3O)c2)C(=N)N1` (stereo partly drawn) [Example 239, 5-[1-(4,4-diethyl-2-imino-6-oxo-hexahydropyrimidin-1-yl)-3-methoxy-propyl]-N-[(1R,2R)-2-hydroxyindan-1-yl]-2-(trifluoromethyl)benzamide]: the EC50 stood at 3.6 nM. On the same count and under the same terms, as for `CCC1(CC)CC(=O)N(C(CCOC)c2ccc(C(F)(F)F)c(C(=O)N[C@@H]3c4ccccc4C[C@@]3(C)O)c2)C(=N)N1` (stereo partly drawn) [Example 241, 5-[1-(4,4-diethyl-2-imino-6-oxo-hexahydropyrimidin-1-yl)-3-methoxy-propyl]-N-[(1R,2R)-2-hydroxy-2-methyl-indan-1-yl]-2-(trifluoromethyl)benzamide], the figure is 9.84 nM; as for `CCC1(CC)CC(=O)N(C(CCOC)c2ccc(C(F)(F)F)c(C(=O)N[C@@H]3c4ccccc4C[C@]3(C)O)c2)C(=N)N1` (stereo partly drawn) [Example 242, 5-[1-(4,4-diethyl-2-imino-6-oxo-hexahydropyrimidin-1-yl)-3-methoxy-propyl]-N-[(1R,2S)-2-hydroxy-2-methyl-indan-1-yl]-2-(trifluoromethyl)benzamide], 2.28 nM.

The experiment is the same for the next values; noted with them: parasite growth measured by LDH assay after 72 hours at 37° C.; 0.7% rings, 2% haematocrit; read-out: EC50.
As to `C#CCCC(c1cccc(C(=O)NC2CC(C)(C)Oc3ccccc32)c1)N1C(=N)NC(CC)(CC)CC1=O` [Example 214B, 3-[(1R)-1-(4,4-diethyl-2-imino-6-oxo-hexahydropyrimidin-1-yl)pent-4-ynyl]-N-(2,2-dimethylchroman-4-yl)benzamide], the concentration for a half-maximal effect (EC50) turned out to be 31.2 nM.

Consider `CCC1(CC)NC(=N)N([C@H](CCOC)c2cccc(C(=O)N[C@@H]3c4ccccc4C[C@H]3O)c2)C(=O)C1C` (stereo partly drawn) [Example 227B, 3-[(1R)-1-(4,4-diethyl-2-imino-5-methyl-6-oxo-hexahydropyrimidin-1-yl)-3-methoxy-propyl]-N-[(1R,2R)-2-hydroxyindan-1-yl]benzamide], for which the EC50 was 1.16 nM. Same read-out and setting: as for `CCC1(CC)CC(=O)N(C(COC)c2cccc(C(=O)N[C@@H]3c4ccccc4OC[C@@]3(C)O)c2)C(=N)N1` (stereo partly drawn) [Example 230, 3-[l-(4,4-diethyl-2-imino-6-oxo-hexahydropyrimidin-1-yl)-2-methoxy-ethyl]-N-[(3S,4R)-3-hydroxy-3-methyl-chroman-4-yl]benzamide], the figure is 0.84 nM.

The experiment is the same for the next values; noted with them: parasite growth measured by LDH assay after 72 hours at 37° C.; 0.7% rings, 2% haematocrit; trifluoroacetate; read-out: EC50.
Consider `C#CCCCC(c1cccc(C(=O)N[C@@H]2CCOc3ccccc32)c1)N1C(=N)NC(CC)(CC)CC1=O` (stereo partly drawn) [Example 210B, [1-[1-[3-[[(4R)-chroman-4-yl]carbamoyl]phenyl]hex-5-ynyl]-4,4-diethyl-6-oxo-hexahydropyrimidin-2-ylidene]ammonium; 2,2,2-trifluoroacetate], for which the EC50 is 2.3 nM.

For `C#CCCCC(c1cccc(C(=O)NC2CCOc3ccccc32)c1)N1C(=N)NC(CC)(CC)CC1=O` [Example 210C, [1-[1-[3-[[(4S)-chroman-4-yl]carbamoyl]phenyl]hex-5-ynyl]-4,4-diethyl-6-oxo-hexahydropyrimidin-2-ylidene]ammonium; 2,2,2-trifluoroacetate], the EC50 was found to be 6.9 nM.
